Reference: patent publication US20220089600A1, “TGFß INHIBITOR AND PRODRUGS” (FUNDACIÓ INSTITUT DE RECERCA BIOMÈDICA (IRB BARCELONA), priority 2018, published 2022)
pIC50: −log10 of the molar value.

Columns and labels:
LigF = target: T1, LigF (Sphingobium sp., UniProt P30347); assay: In vitro fluorescence assay with purified LigF; format: biochemical, Sphingobium sp. strain SYK-6; details: 30 μM substrate, 15 μg/ml LigF, 1 mM glutathione, room temperature
T1 construct: made in house; host or cells: E. coli BL21 (DE3) Rosetta lysS
T1 sequence (P30347 1-257): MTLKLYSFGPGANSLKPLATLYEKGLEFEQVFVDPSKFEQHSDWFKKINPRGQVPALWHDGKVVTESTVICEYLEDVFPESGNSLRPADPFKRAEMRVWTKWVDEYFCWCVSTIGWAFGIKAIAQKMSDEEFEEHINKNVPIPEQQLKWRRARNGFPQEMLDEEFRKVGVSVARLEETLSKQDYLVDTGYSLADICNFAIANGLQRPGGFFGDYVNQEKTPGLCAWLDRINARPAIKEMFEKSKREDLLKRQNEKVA
Procedure: To test the enzymatic activity of LigF, pure LigF protein was expressed by the Protein Expression Core Facility within the IRB Barcelona by inserting the His-tagged LigF DNA into a pOPINF vector and expressed in E. coli BL21 (DE3) Rosetta IysS cells. After expression and lysis, the protein was purified by using a nickel column followed by gel filtration. Noteworthy, the His tags were not removed from the protein after purification.
For in vitro fluorescence assays, purified LigF was diluted to 15 μg/ml in 20 mM Tris-HCl (pH 7.5), 1 mM glutathione and 30 μM 4-methylumbelliferone acetovanillone (MUAV) model compound was added.
Reactions were performed in a 96-well solid polystyrene plate (Corning) and measured with a top-well plate reader (BioTek FL600 fluorometer) at 360 excitation, 485 emission and sensitivity 100.
Due to a rapid rate of production of 4-methylumbelliferone (4-MU) owing to the cleavage of the beta-ether bond of compound MUAV, the protocol described by Masai (E. Masai et al., J. Bacteriol. 2003, 185, 1768-75) was modified by lowering the LigF enzyme concentration. With this optimized protocol, compound MUAV was incubated at room temperature in the presence of a buffer, glutathione (GSH) and LigF, and followed the cleavage by observing the production of 4-MU by fluorescence. […] Enzyme LigF cleaved product MUAV in approximately 30-40 min (FIG. 6).

[1] = target: T2, LigF expressed in HEK293T cells (Sphingobium sp., UniProt P30347); assay: Fluorescence assay in HEK293T cells stably expressing LigF; format: cell-based
T2 construct: expressed in transfected cells; host or cells: HEK293T (lentiviral pLenti PGK puro)
Procedure: […]. At time points after addition of various concentrations of MUAV, namely 10, 30, and 100 μM, culture medium was taken for measurements of 4-MU fluorescence.

MTO129 liver metastases [2] = details: Tauriello et al. Nature 2018 (10×); cited from earlier work
[3] = tested on: TGFβ signaling (12×CAGA-Firefly_Luc reporter) in HEK293T cells; assay: In vitro CAGA-Luciferase reporter assay; format: cell-based; details: Homo sapiens, HEK-293T, 5 ng/ml TGFB1, 16h, read-out: IC50, TGFβ signaling inhibition (CAGA-Luciferase)
Procedure: HEK293T cells were purchased from the ATCC and cultured in DMEM supplemented with L-glutamine and 10% fetal bovine serum (Life Technologies) at 37° C. and 5% CO2. The cells were seeded in 24-well plates and transfected with plasmids encoding 12×CAGA-Firefly_Luc and Tk-Renilla_Luc (75 and 10 ng per well, respectively), using polyethylenimine (Polysciences) as transfection reagent. After 7h, medium was replaced for starvation medium (DMEM+0.05% FBS). […] Luciferase activity was measured 16h later using the Dual Luciferase Assay kit (Promega): media were aspirated, and cells were lysed in 200 μl passive lysis buffer (kit) for 20 minutes. Bioluminescence was measured in a Berthold Lumat LB6507 luminometer (18 μl reagents, 10 seconds measurements). […]
When adding the luciferase substrate (luciferin) to the cell lysates, emission of light implies an active TGF-β pathway due to the production of pSMAD2/3-SMAD4, whereas no or little observed light would imply inhibition of the pathway by the inhibitor. Finally, the results could be normalized by the addition of Stop & Glo® which quenches the firefly luciferase enzyme/substrate and activates the Renilla transfection control, producing light which was again measured by the luminometer and used to normalize the data.

MTO129 liver metastases [4] = assay: Mouse liver metastasis initiation/formation assay with MTOs; format: in vivo; details: for Efficacy (Cure rate): two weeks, mice with no metastases; for metastatic tumor growth inhibitory capacity (bioluminescence): day 3 until day 14
Text: Mouse tumor organoids (MTOs) are derived from compound transgenic mice (conditional mutations in Apc, Kras, Trp53 and Tgfbr2, as well as bearing Lgr5-EGFP/CreER^T2) of the C57BL6/J strain and cultured as described in Tauriello et al. 2018 Nature 554(7693): 538-543. doi: 10.1038/nature25492. Organoids are tumor epithelial cells grown in a 3D matrix where they adopt an organotypic architecture, typically as spheroids with a lumen. In this way, cells retain a relatively normal polarity (which means that the outside surface, inside/luminal surface and cell-cell contacts are individually specialized), which is more physiological than in conventional 2D cell culture.
In all experiments described in present invention MTO129 were used (Tauriello et al. Nature. 2018).
In patients, treatment doses were reduced to 80 to 150 mg b.i.d in a regime of 14 days on-14 days off.
MTOs expressing a luciferase reporter were measured by bioluminescence imaging, using retroorbital injection of 50 μl 15 mg/ml D-luciferin potassium salt (Resem BV). Photons per second from the region spanning thorax/abdomen were quantified and normalized to the measure at the day of injection.
Control mice were treated with 150 μl of vehicle.
In the experiment shown in FIG. 13, potency of the indicated compounds to inhibit metastasis formation was assessed. Mice were treatments with indicated compounds started two days after MTO129 transplantation and continued during two weeks. Mice were sacrificed at 4 weeks post transplantation and liver metastases (LiMs) were counted by eye on fixed livers.

[5] = In vivo toxicity, histopathology; design: species or system mouse; details: for Sternum side effect, mice affected per mice tested / Long bones side effect, mice affected per mice tested: two weeks
Text: Number of cured mice, i.e. mice with no metastases at experimental end points, were score. Intestines, skin samples, hearts, thoracic skeletons and limbs of these mice were fixed in 10% formalin, phosphate buffered (Sigma). Soft tissues were embedded in paraffin blocks, sectioned and stained with haematoxylin & eosin. Bones were first decalcified for 2 weeks before embedding, sectioning and staining. An experienced pathologist analyzed tissues for histopathological abnormalities. […] Furthermore, the cartilage ossification zone at the ends of the long bones was analysed for defects in the hypertrophic zone.

COc1cc(C(=O)COc2ccc3c(C)cc(=O)oc3c2)ccc1O [MUAV, 7-(2-(4-hydroxy-3-methoxyphenyl)-2-oxoethoxy)-4-methyl-2H-chromen-2-one]
time for cleavage by LigF (LigF): 30 to 40 min
cleavage of ether bond (4-MU fluorescence) ([1]; HEK293T expressing LigF, 10, 30, 100 μM): dose-dependent increase in fluorescence
cleavage of ether bond (4-MU fluorescence) ([1]; HEK293T with empty vector (no LigF), 100 μM): No cleavage

Cc1cccc(-c2nn3c(c2-c2ccnc4ccc(C(N)=O)cc24)CCC3)n1 [Galunisertib, reference compound]
doses needed to effectively treat metastatic cancers (MTO129 liver metastases [2]): up to 1600 mg/kg/day
pIC50 [3]: 6.44
Efficacy (Cure rate) (MTO129 liver metastases [4]; 1x dose): 0%
Efficacy (Cure rate) (MTO129 liver metastases [4]; 3x dose): ~70%
Efficacy (Cure rate) (MTO129 liver metastases [4]; 9x dose): ~100%
metastatic tumor growth inhibitory capacity (MTO129 liver metastases [4]; 9× dose, as seen in FIG. 3): highly effective
metastatic tumor growth inhibitory capacity (bioluminescence) (MTO129 liver metastases [4]; FIG. 4, 1× dose): not effective
metastatic tumor growth inhibitory capacity (bioluminescence) (MTO129 liver metastases [4]; FIG. 4, 3× dose): mostly effective
effective dose (>50% efficacy) (MTO129 liver metastases [4]; oral, divided b.i.d.): 480 mg/kg/day
Combined side effects per number tested ([5]; 1x dose): 0/5
Toxicity (%) ([5]; 1x dose): 0%
Sternum side effect, mice affected per mice tested ([5]; 1x dose): 0/5
pathological analysis of the skin and intestine ([5]; 1× doses): No pathological anomalies
Combined side effects per number tested ([5]; 3x dose): 1/9
Toxicity (%) ([5]; 3x dose): 11%
Long bones side effect, mice affected per mice tested ([5]; 3x dose): 0/5
Sternum side effect, mice affected per mice tested ([5]; 3x dose): 1/4
Combined side effects per number tested ([5]; 9x dose): 6/10
Toxicity (%) ([5]; 9x dose): 60%
Long bones side effect, mice affected per mice tested ([5]; 9x dose): 2/3
Sternum side effect, mice affected per mice tested ([5]; 9x dose): 4/7
toxic dose (toxicity >50%) ([5]; 9× dose equivalent): 1440 mg/kg/day
